Laboratory results from patent US9510592B2, “Pesticidal compositions and processes related thereto” (Dow AgroSciences LLC, priority 2012, dated 2016).

How the values were obtained:
[1] = system: Corn Earworm (Helicoverpa zea); assay: Bioassay on Corn Earworm (CEW), 128-well diet tray assay; type: in vivo; conditions: percent mortality of second instar larvae, 50 μg/cm^2 on artificial diet, five to seven days, 25° C., Table 3; for pest or weed control at 50 µg/cm2: Helicoverpa zea, 168 h, read-out: CEW Rating
Procedure: Certain molecules disclosed in this document were tested against BAW and CEW and CL using procedures described in the following examples. In the reporting of the results, the “BAW & CEW & CL Rating Table” was used (See Table Section).
Bioassays On CEW (Helicoverpa zea)
Bioassays on CEW were conducted using a 128-well diet tray assay. one to five second instar CEW larvae were placed in each well (3 mL) of the diet tray that had been previously filled with 1 mL of artificial diet to which 50 μg/cm^2 of the test compound (dissolved in 50 μL of 90:10 acetone-water mixture) had been applied (to each of eight wells) and then allowed to dry. Trays were covered with a clear self-adhesive cover, and held at 25° C., 14:10 light-dark for five to seven days. Percent mortality was recorded for the larvae in each well; activity in the eight wells was then averaged. The results are indicated in the table entitled “Table 3: Assay Results” (See Table Section).

[2] = system: Beet Armyworm (Spodoptera exigua); assay: Bioassay on Beet Armyworm (BAW), 128-well diet tray assay; type: in vivo; conditions: percent mortality of second instar larvae, 50 μg/cm^2 on artificial diet, five to seven days, 25° C., Table 3; for pest or weed control at 50 µg/cm2, 50 µg/cm2: Spodoptera exigua, 168 h, read-out: BAW Rating
Procedure, shortened: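 Second-instar larvae (one to five per well) were placed on artificial diet surface-treated with 50 μg/cm^2 compound in acetone-water and held at 25 °C, 14:10 light-dark, for five to seven days. Percent mortality was averaged over eight wells.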

SMILES: FC(F)(F)C(/C=C/c1ccc(-n2cncn2)cc1)c1cc(Cl)c(Cl)c(Cl)c1 (centres unmarked) [DC18]
- pest or weed control at 50 µg/cm2 [1]: 50 to 100%
- pest or weed control at 50 µg/cm2, 50 µg/cm2 [2]: 50 to 100%

SMILES: N#Cc1cc(/C=C/C(c2cc(C(F)(F)F)cc(C(F)(F)F)c2)C(F)(F)F)ccc1-n1cncn1 (centres unmarked) [DC30]
- pest or weed control at 50 µg/cm2 [1]: 50 to 100%
- pest or weed control at 50 µg/cm2, 50 µg/cm2 [2]: 50 to 100%

SMILES: O=C(NCc1ccc(Cl)nc1)c1ccc(/C=C/C(c2cc(Cl)cc(Cl)c2)C(F)(F)F)cc1Br (centres unmarked) [AC46]
- pest or weed control at 50 µg/cm2 [1]: 50 to 100%
- pest or weed control at 50 µg/cm2, 50 µg/cm2 [2]: 50 to 100%

SMILES: N#Cc1cc(/C=C/C(c2cc(Cl)cc(Cl)c2)C(F)(F)F)ccc1-n1cncn1 (centres unmarked) [DC29]
- pest or weed control at 50 µg/cm2 [1]: 50 to 100%
- pest or weed control at 50 µg/cm2, 50 µg/cm2 [2]: 50 to 100%

SMILES: O=C(NC1CCN(CC(F)(F)F)CC1)c1ccc(/C=C/C(c2cc(Cl)c(Cl)c(Cl)c2)C(F)(F)F)cc1Br (centres unmarked) [AC105, (E)-2-Bromo-4-(4,4,4-trifluoro-3-(3,4,5-trichlorophenyl)but-1-en-1-yl)-N-(1-(2,2,2-trifluoroethyl)piperidin-4-yl)benzamide]
- pest or weed control at 50 µg/cm2 [1]: 50 to 100%
- pest or weed control at 50 µg/cm2, 50 µg/cm2 [2]: 50 to 100%

SMILES: CNC(=S)NC1CCc2cc(/C=C/C(c3cc(Cl)c(Cl)c(Cl)c3)C(F)(F)F)ccc21 (centres unmarked) [BC1, (E)-1-Methyl-3-(5-(4,4,4-trifluoro-3-(3,4,5-trichlorophenyl)-but-1-enyl)-2,3-dihydro-1H-inden-1-yl)thiourea]
- pest or weed control at 50 µg/cm2 [1]: 50 to 100%
- pest or weed control at 50 µg/cm2, 50 µg/cm2 [2]: 50 to 100%

SMILES: C=CCNC(=S)NC1CCc2cc(/C=C/C(c3cc(Cl)c(Cl)c(Cl)c3)C(F)(F)F)ccc21 (centres unmarked) [BC3]
- pest or weed control at 50 µg/cm2 [1]: 50 to 100%
- pest or weed control at 50 µg/cm2, 50 µg/cm2 [2]: 50 to 100%

SMILES: O=C(NCc1ccc(/C=C/C(c2cc(Cl)c(Cl)c(Cl)c2)C(F)(F)F)cc1Cl)Oc1ccccc1Cl (centres unmarked) [CC40]
- CEW Rating [1]: A (50-100)

SMILES: CCc1cc(/C=C/C(c2cc(Cl)c(F)c(Cl)c2)C(F)(F)F)ccc1C(=O)NCc1cccnc1Cl (centres unmarked) [AC76]
- pest or weed control at 50 µg/cm2 [1]: 50 to 100%
- pest or weed control at 50 µg/cm2, 50 µg/cm2 [2]: 50 to 100%

SMILES: CN(C)NC(=O)CNC(=O)c1ccc(/C=C/C(c2cc(Cl)c(Cl)c(Cl)c2)C(F)(F)F)cc1Br (centres unmarked) [AC112]
- pest or weed control at 50 µg/cm2 [1]: 50 to 100%
- pest or weed control at 50 µg/cm2, 50 µg/cm2 [2]: 50 to 100%

SMILES: FC(F)(F)C(/C=C/c1ccc(-n2cncn2)cc1)c1ccc(Cl)cc1Cl (centres unmarked) [DC13]
- pest or weed control at 50 µg/cm2 [1]: 50 to 100%
- pest or weed control at 50 µg/cm2, 50 µg/cm2 [2]: 50 to 100%

SMILES: CCNC(=S)NC1CCc2cc(/C=C/C(c3cc(Cl)c(Cl)c(Cl)c3)C(F)(F)F)ccc21 (centres unmarked) [BC2]
- pest or weed control at 50 µg/cm2 [1]: 50 to 100%
- pest or weed control at 50 µg/cm2, 50 µg/cm2 [2]: 50 to 100%

SMILES: FC(F)(F)C(/C=C/c1ccc(-n2cncn2)cc1)c1cc(Cl)cc(Cl)c1Cl (centres unmarked) [DC17]
- pest or weed control at 50 µg/cm2 [1]: 50 to 100%
- pest or weed control at 50 µg/cm2, 50 µg/cm2 [2]: 50 to 100%

SMILES: FC(F)(F)c1cc(Cl)cc(C(/C=C/c2ccc(-n3cncn3)cc2)C(F)(F)F)c1 (centres unmarked) [DC19]
- pest or weed control at 50 µg/cm2 [1]: 50 to 100%
- pest or weed control at 50 µg/cm2, 50 µg/cm2 [2]: 50 to 100%

SMILES: O=C(NC1CCNCC1)c1ccc(/C=C/C(c2cc(Cl)c(Cl)c(Cl)c2)C(F)(F)F)cc1Br (centres unmarked) [AC114, (E)-2-Bromo-N-(piperidin-4-yl)-4-(4,4,4-trifluoro-3-(3,4,5-trichlorophenyl)but-1-en-1-yl)benzamide]
- BAW Rating [2]: A (50-100)

SMILES: CN(C)C(=O)NCc1ccc(/C=C/C(c2cc(Cl)c(Cl)c(Cl)c2)C(F)(F)F)cc1Cl (centres unmarked) [CC36, (E)-3-(2-Chloro-4-(4,4,4-trifluoro-3-(3,4,5-trichlorophenyl)but-1-en-1-yl)benzyl)-1,1-dimethylurea]
- BAW Rating [2]: A (50-100)

SMILES: O=C(CNC(=O)c1ccc(/C=C/C(c2cc(Cl)c(F)c(Cl)c2)C(F)(F)F)cc1[N+](=O)[O-])NCC(F)(F)F (centres unmarked) [AC98]
- BAW Rating [2]: A (50-100)

SMILES: O=C(NCc1ccc(Cl)nc1)c1ccc(/C=C/C(c2cc(Cl)c(F)c(Cl)c2)C(F)(F)F)cc1F (centres unmarked) [AC65]
- BAW Rating [2]: A (50-100)

SMILES: Cc1cc(/C=C/C(c2cc(Cl)c(Cl)c(Cl)c2)C(F)(F)F)ccc1C(=O)NCc1cnc(Cl)s1 (centres unmarked) [AC26]
- BAW Rating [2]: A (50-100)

SMILES: Cc1cc(/C=C/C(c2cc(Cl)c(F)c(Cl)c2)C(F)(F)F)ccc1C(=O)NCc1ccnc(Cl)c1 (centres unmarked) [AC54]
- BAW Rating [2]: A (50-100)

SMILES: Cc1cc(/C=C/C(c2cc(Cl)c(Cl)c(Cl)c2)C(F)(F)F)ccc1C(=O)NCC(=O)NCC(F)(F)F (centres unmarked) [AC78]
- BAW Rating [2]: A (50-100)

SMILES: N#Cc1cc(/C=C/C(c2cc(Cl)c(Cl)c(Cl)c2)C(F)(F)F)ccc1-n1cnc(N(C(=O)C2CC2)C(=O)C2CC2)n1 (centres unmarked) [DC42, (E)-N-(1-(2-Cyano-4-(4,4,4-trifluoro-3-(3,4,5-trichlorophenyl)but-1-en-1-yl)phenyl)-1H-1,2,4-triazol-3-yl)-N-(cyclopropanecarbonyl)cyclopropanecarboxamide]
- BAW Rating [2]: A (50-100)

SMILES: CC(=O)N1CCC(NC(=O)c2ccc(/C=C/C(c3cc(Cl)c(Cl)c(Cl)c3)C(F)(F)F)cc2Br)CC1 (centres unmarked) [AC103, (E)-N-(1-Acetylpiperidin-4-yl)-2-bromo-4-(4,4,4-trifluoro-3-(3,4,5-trichlorophenyl)but-1-en-1-yl)benzamide]
- BAW Rating [2]: A (50-100)

SMILES: O=C(NC1CSC1)c1ccc(/C=C/C(c2cc(Cl)c(Cl)c(Cl)c2)C(F)(F)F)cc1Cl (centres unmarked) [AC29]
- BAW Rating [2]: A (50-100)

SMILES: Cc1cc(/C=C\C(c2cc(Cl)cc(Cl)c2)C(F)(F)F)ccc1C(=O)NCC(=O)NC1CC1 (centres unmarked) [AC93]
- BAW Rating [2]: A (50-100)

SMILES: O=C(NC1CS(=O)(=O)C1)c1ccc(/C=C/C(c2cc(Cl)c(Cl)c(Cl)c2)C(F)(F)F)cc1Br (centres unmarked) [AC33]
- BAW Rating [2]: A (50-100)

SMILES: FC(F)(F)C(/C=C/c1ccc(-n2cncn2)c(Br)c1)c1cc(Cl)cc(Cl)c1 (centres unmarked) [DC47]
- BAW Rating [2]: A (50-100)

SMILES: O=C(NC1CS(=O)(=O)C1)c1ccc(/C=C/C(c2cc(Cl)c(F)c(Cl)c2)C(F)(F)F)cc1F (centres unmarked) [AC84]
- BAW Rating [2]: A (50-100)

SMILES: Cc1cc(/C=C/C(c2cc(Cl)cc(Cl)c2)C(F)(F)F)ccc1C(=O)Nc1ccc(Cl)nc1 (centres unmarked) [AC59]
- BAW Rating [2]: A (50-100)

SMILES: O=C(CNC(=O)c1ccc(/C=C/C(c2cc(Cl)c(Cl)c(Cl)c2)C(F)(F)F)cc1Br)NCC(F)(F)F (centres unmarked) [AC66]
- BAW Rating [2]: A (50-100)

SMILES: Cc1cc(/C=C/C(c2cc(Cl)c(Cl)c(Cl)c2)C(F)(F)F)ccc1C(=O)NC1CS(=O)(=O)C1 (centres unmarked) [AC25]
- pest or weed control at 50 µg/cm2 [1]: 50 to 100%
- pest or weed control at 50 µg/cm2, 50 µg/cm2 [2]: 50 to 100%

SMILES: Cc1cc(/C=C/C(c2cc(Cl)cc(Cl)c2)C(F)(F)F)ccc1C(=O)NCC(=O)NC1CS(=O)(=O)C1 (centres unmarked) [AC81]
- BAW Rating [2]: A (50-100)

SMILES: Cc1cc(/C=C/C(c2cc(Cl)cc(Cl)c2)C(F)(F)F)ccc1C(=O)NCc1cccnc1 (centres unmarked) [AC14]
- pest or weed control at 50 µg/cm2 [1]: 0 to 50%
- pest or weed control at 50 µg/cm2, 50 µg/cm2 [2]: 50 to 100%

SMILES: O=C(NC1CCCc2cc(/C=C/C(c3cc(Cl)c(Cl)c(Cl)c3)C(F)(F)F)ccc21)C1CC1 (centres unmarked) [BC7]
- BAW Rating [2]: A (50-100)

SMILES: FC(F)(F)C(/C=C/c1ccc(-n2cncn2)cc1Cl)c1cc(Cl)cc(Cl)c1 (centres unmarked) [DC67]
- BAW Rating [2]: A (50-100)

SMILES: O=C(CNC(=O)c1ccc(/C=C/C(c2cc(Cl)c(F)c(Cl)c2)C(F)(F)F)cc1Br)NCC(F)(F)F (centres unmarked) [AC79, (E)-2-Bromo-4-(3-(3,5-dichloro-4-fluorophenyl)-4,4,4-trifluorobut-1-en-1-yl)-N-(2-oxo-2-((2,2,2-trifluoroethyl)amino)ethyl)benzamide]
- BAW Rating [2]: A (50-100)

SMILES: O=C(NCc1ccc(/C=C/C(c2cc(Cl)c(Cl)c(Cl)c2)C(F)(F)F)cc1C(F)(F)F)C1CC1 (centres unmarked) [CC22]
- BAW Rating [2]: A (50-100)

SMILES: O=C(NCc1ccc(/C=C/C(c2cc(Cl)c(Cl)c(Cl)c2)C(F)(F)F)cc1C(F)(F)F)c1cccnc1 (centres unmarked) [CC23]
- BAW Rating [2]: A (50-100)

SMILES: Cc1cc(/C=C/C(c2cc(Cl)cc(Cl)c2)C(F)(F)F)ccc1C(=O)NNc1ccccc1F (centres unmarked) [AC17]
- BAW Rating [2]: A (50-100)

SMILES: O=C(CC(F)(F)F)NCc1ccc(/C=C/C(c2ccc(Cl)c(Cl)c2)C(F)(F)F)cc1Cl (centres unmarked) [CC18]
- BAW Rating [2]: A (50-100)

SMILES: Cc1cc(/C=C/C(c2cc(Cl)cc(Cl)c2)C(F)(F)F)ccc1C(=O)NCc1ncccn1 (centres unmarked) [AC18]
- BAW Rating [2]: A (50-100)

SMILES: CS(=O)(=O)CCC(=O)NCc1ccc(/C=C/C(c2cc(Cl)c(Cl)c(Cl)c2)C(F)(F)F)cc1Cl (centres unmarked) [CC30, (E)-N-(2-Chloro-4-(4,4,4-trifluoro-3-(3,4,5-trichlorophenyl)but-1-en-1-yl)benzyl)-3-(methylsulfonyl)propanamide]
- BAW Rating [2]: A (50-100)

SMILES: CCc1cc(/C=C/C(c2cc(Cl)c(F)c(Cl)c2)C(F)(F)F)ccc1C(=O)NC1CS(=O)(=O)C1 (centres unmarked) [AC86]
- BAW Rating [2]: A (50-100)

SMILES: Cc1cc(/C=C/C(c2cc(Cl)cc(Cl)c2)C(F)(F)F)ccc1C(=O)NCc1nccn1C (centres unmarked) [AC50]
- BAW Rating [2]: A (50-100)
